# Results as given in patent US20250230193A1, “CYCLIC COMPOUND HAVING SELECTIVE KRAS INHIBITORY EFFECT ON HRAS AND NRAS” (CHUGAI SEIYAKU KABUSHIKI KAISHA, priority 2022, published 2025).
# Where a SMILES comes first, the peptide text is derived from it. Bridges are numbered along the chain shown (N, C = ends). [ ]: non-standard residue; d: D form. The star is where a group is joined. hPhe(3-Cl-4-CF3) = N[C@@H](CCc1ccc(C(F)(F)F)c(Cl)c1)C(=O)O; NPrPhe(4-CF3) = CCCN[C@@H](Cc1ccc(C(F)(F)F)cc1)C(=O)O; NMePhe(4-Me) = CN[C@@H](Cc1ccc(C)cc1)C(=O)O; NMeGly(cPent) = CN[C@H](C(=O)O)C1CCCC1; Hyp = O=C(O)[C@@H]1C[C@@H](O)CN1; NMeD = CN[C@@H](CC(=O)O)C(=O)O; NMeL = CN[C@@H](CC(C)C)C(=O)O; Morpholide = C1CN(*)CCO1; Ac5c = NC1(C(=O)O)CCCC1; Aze = O=C(O)[C@@H]1CCN1; Ac4c = NC1(C(=O)O)CCC1; NBuGly = CCCCNCC(=O)O; Sar = CNCC(=O)O
# Assays:
# [1] = biological target: GDP-bound HRAS wild-type protein (Homo sapiens, UniProt P01112); assay: Binding to HRAS by surface plasmon resonance (SPR), Single Cycle Kinetics; details: for HRAS/KRAS (ratio of KD value with respect to HRAS to KD value with respect to KRAS) / HRAS/KRAS (ratio of KD value for HRAS to KD value for KRAS): GDP-bound HRAS wild-type vs GDP-bound KRAS wild-type
# Sequence of GDP-bound HRAS wild-type protein (P01112 whole entry): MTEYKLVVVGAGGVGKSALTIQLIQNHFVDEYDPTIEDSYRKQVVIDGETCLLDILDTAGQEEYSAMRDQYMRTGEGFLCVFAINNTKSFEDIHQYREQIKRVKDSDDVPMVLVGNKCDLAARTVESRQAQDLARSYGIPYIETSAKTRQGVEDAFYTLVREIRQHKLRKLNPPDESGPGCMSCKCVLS
# [2] = biological target: GDP-bound NRAS wild-type protein (Homo sapiens, UniProt P01111); assay: Binding to NRAS by surface plasmon resonance (SPR), Single Cycle Kinetics; details: for NRAS/KRAS (ratio of KD value with respect to NRAS to KD value with respect to KRAS) / NRAS/KRAS (ratio of KD value for NRAS to KD value for KRAS): GDP-bound NRAS wild-type vs GDP-bound KRAS wild-type
# Sequence of GDP-bound NRAS wild-type protein (P01111 whole entry): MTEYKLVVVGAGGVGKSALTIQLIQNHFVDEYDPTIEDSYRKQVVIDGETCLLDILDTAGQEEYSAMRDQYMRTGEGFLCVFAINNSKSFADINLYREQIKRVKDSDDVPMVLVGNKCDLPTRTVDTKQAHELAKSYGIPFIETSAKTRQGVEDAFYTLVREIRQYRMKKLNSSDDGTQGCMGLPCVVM
smiles,measurement,setting,value
CCO[C@@H]1C[C@H]2C(=O)NC3(CCC3)C(=O)N(C)[C@@H](C3CCCC3)C(=O)N(C)[C@H](C(=O)N3CCOCC3)CC(=O)N(C)[C@@H](CC(C)C)C(=O)N[C@@H]([C@@H](C)CC)C(=O)N(C)CC(=O)N(C)[C@H]3CCCCCN(C3=O)[C@@H](Cc3ccc4ccsc4c3)C(=O)N(C)CC(=O)N[C@@H](CCc3cc(F)c(C(F)(F)F)c(F)c3)C(=O)N2C1 [PP0921],HRAS/KRAS (ratio of KD value with respect to HRAS to KD value with respect to KRAS),"[1]; KD ratio, SPR",B (a compound having 3 or more and less than 10 is denoted as B)
same,NRAS/KRAS (ratio of KD value with respect to NRAS to KD value with respect to KRAS),"[2]; KD ratio, SPR",B (a compound having 3 or more and less than 10 is denoted as B)
CCC(CC)[C@H]1C(=O)N(C)[C@H](C(=O)N(C)C)CC(=O)N(C)[C@@H](COC)C(=O)N[C@@H]([C@@H](C)CC)C(=O)N(C2CC2)CC(=O)N(C)[C@H]2C/C=C\CCN(C2=O)[C@@H](Cc2ccc(C)cc2)C(=O)N(C)CC(=O)N[C@@H](CCc2cc(F)c(C(F)(F)F)c(F)c2)C(=O)N2C[C@H](OC3CCCC3)C[C@H]2C(=O)NC2(CC(C)(C)C2)C(=O)N1C [PP2619],HRAS/KRAS (ratio of KD value with respect to GDP-bound HRAS wild-type protein to KD value with respect to KRAS),"[1]; KD ratio HRAS/KRAS, class symbols",A (a compound having 10 or more and less than 20 is denoted as A)
same,NRAS/KRAS (ratio of KD value with respect to GDP-bound NRAS wild-type protein to KD value with respect to KRAS),"[2]; KD ratio NRAS/KRAS, class symbols",AA (a compound having 20 or more is denoted as AA)
CCO[C@@H]1C[C@H]2C(=O)N(C)C3(CCC3)C(=O)N(C)[C@@H](C3CCCC3)C(=O)N(C)[C@H](C(=O)N(C)C)CC(=O)N(C)[C@@H](CC3CC3)C(=O)N[C@@H]([C@@H](C)CC)C(=O)N(C)CC(=O)N(C)[C@H]3C/C=C\CCN(C3=O)[C@@H](Cc3ccc(C)cc3)C(=O)N(C)CC(=O)N[C@@H](CCc3cc(F)c(C(F)(F)F)c(F)c3)C(=O)N2C1 [PP1795],HRAS/KRAS (ratio of KD value for HRAS to KD value for KRAS),"[1]; KD ratio, SPR",B (a compound having 3 or more and less than 10 is denoted as B)
same,NRAS/KRAS (ratio of KD value for NRAS to KD value for KRAS),"[2]; KD ratio, SPR",A (a compound having 10 or more and less than 20 is denoted as A)
CCO[C@@H]1C[C@H]2C(=O)NC3(CC(C)(C)C3)C(=O)N(C)[C@@H](C(CC)CC)C(=O)N(C)[C@H](C(=O)N(C)C)CC(=O)N(C)[C@@H](COC)C(=O)N[C@@H]([C@@H](C)CC)C(=O)N(C)CC(=O)N(C)[C@H]3C/C=C\CCN(C3=O)[C@@H](Cc3ccc(C(F)(F)F)cc3)C(=O)N(C)CC(=O)N[C@@H](CCc3ccc(C(F)(F)F)c(OC)c3)C(=O)N2C1 [PP2157],HRAS/KRAS (ratio of KD value with respect to HRAS to KD value with respect to KRAS),[1]; SPR,A (a compound having 10 or more and less than 20 is denoted as A)
same,NRAS/KRAS (ratio of KD value with respect to NRAS to KD value with respect to KRAS),[2]; SPR,A (a compound having 10 or more and less than 20 is denoted as A)
CCC[C@H]1C(=O)N[C@@H]([C@@H](C)CC)C(=O)N(C)CC(=O)N(C)[C@H]2C/C=C\CCN(C2=O)[C@@H](Cc2ccc(C)cc2)C(=O)N(C)CC(=O)N[C@@H](CCc2cc(F)c(C(F)(F)F)c(F)c2)C(=O)N2C[C@H](C)C[C@H]2C(=O)N(C)C2(CCC2)C(=O)N(C)[C@@H](C2CCCC2)C(=O)N(C)[C@H](C(=O)N(C)C)CC(=O)N1C [PP1799],HRAS/KRAS (ratio of KD value for HRAS to KD value for KRAS),"[1]; KD ratio, SPR",B (a compound having 3 or more and less than 10 is denoted as B)
same,NRAS/KRAS (ratio of KD value for NRAS to KD value for KRAS),"[2]; KD ratio, SPR",B (a compound having 3 or more and less than 10 is denoted as B)
CCCCN1CC(=O)N(C)[C@@H](Cc2ccc(C)cc2)C(=O)N(C)CC(=O)N[C@@H](CCc2ccc(C(F)(F)F)c(Cl)c2)C(=O)N2CCC[C@H]2C(=O)NC2(CCCC2)C(=O)N(C)[C@@H](C2CCCC2)C(=O)N(C)[C@H](C(=O)N2CCOCC2)CC(=O)N(C)[C@@H](CC(C)C)C(=O)N[C@@H]([C@@H](C)CC)C(=O)N(C)CC1=O [PP0021] ([NMeL]I[Sar][NBuGly][NMePhe(4-Me)][Sar][hPhe(3-Cl-4-CF3)]P[Ac5c][NMeGly(cPent)][NMeD]-Morpholide; lactam N-11),HRAS/KRAS (ratio of KD for GDP-bound HRAS wild-type to KD for KRAS),"[1]; KD ratio HRAS/KRAS, SPR",C (A compound having a KD ratio of 0.1 or more and less than 3 is denoted as C)
same,NRAS/KRAS (ratio of KD for GDP-bound NRAS wild-type to KD for KRAS),"[2]; KD ratio NRAS/KRAS, SPR",C (A compound having a KD ratio of 0.1 or more and less than 3 is denoted as C)
CCCN1C(=O)[C@@H]2CCN2C(=O)CN(C)C(=O)[C@H]([C@@H](C)CC)NC(=O)[C@H](CC(C)C)N(C)C(=O)C[C@@H](C(=O)N(C)C)N(C)C(=O)[C@H](C2CCCC2)N(C)C(=O)C2(CCC2)NC(=O)[C@@H]2C[C@@H](OCC)CN2C(=O)[C@H](CCc2ccc(C(F)(F)F)c(Cl)c2)NC(=O)CN(C)C(=O)[C@@H]1Cc1ccc(C(F)(F)F)cc1 [PP0445] ([NMeL]I[Sar][Aze][NPrPhe(4-CF3)][Sar][hPhe(3-Cl-4-CF3)][Hyp](Et)[Ac4c][NMeGly(cPent)][NMeD]-NMe2; lactam N-11),HRAS/KRAS (ratio of KD value with respect to GDP-bound HRAS wild-type protein to KD value with respect to KRAS),"[1]; KD ratio HRAS/KRAS, SPR",C (A compound having a KD ratio of 0.1 or more and less than 3 is denoted as C)
same,NRAS/KRAS (ratio of KD value with respect to GDP-bound NRAS wild-type protein to KD value with respect to KRAS),"[2]; KD ratio NRAS/KRAS, SPR",C (A compound having a KD ratio of 0.1 or more and less than 3 is denoted as C)
